Earlier results in PMC10707982, “Solubility and Thermodynamics Data of Cabozantinib Malate in Various Aqueous Solutions of Dimethyl Sulfoxide at Different Temperatures” (Molecules, 2023).

Set-up: method as in doi:10.1016/j.molliq.2020.115146
Conditions: neat solvent; cited from earlier work

Row | Compound | HSP of neat solvent (δ1, δ2) [MPa^1/2]
1 | O [H2O, water] | 47.80
2 | C[S+](C)[O-] [DMSO, dimethyl sulfoxide] | 23.60
